In ChEMBL document CHEMBL1770145, “Synthesis of 5(6)-dihydro-OSW-1 analogs bearing three kinds of disaccharides linking at 15-hydroxy and their antitumor activities” (Bioorg Med Chem Lett, 2011):

Key:
Assay type in all cases: functional, cell-based
MCF7 [1] = assay: Cytotoxicity against human MCF7 cells by MTT assay
HCT-8 = assay: Cytotoxicity against human HCT8 cells by MTT assay
A549 = assay: Cytotoxicity against human A549 cells by MTT assay
KETR3 = assay: Cytotoxicity against human Ketr3 cells by MTT assay
Bel-7402 [2] = assay: Cytotoxicity against human Bel7402 cells by MTT assay
A2780 = assay: Cytotoxicity against human A2780 cells by MTT assay
BGC-823 = assay: Cytotoxicity against human BGC823 cells by MTT assay
Bel-7402 [3] = assay: Cytotoxicity against human Bel7402 cells
AGS = assay: Cytotoxicity against human AGS cells
MCF7 [4] = assay: Cytotoxicity against human MCF7 cells

## COc1ccc(C(=O)O[C@H]2[C@H](O[C@H]3CO[C@@H](O[C@H]4CC([C@H](C)C(=O)CC[C@@H](C)CO)[C@@]5(C)CC[C@H]6[C@@H](CC[C@H]7C[C@@H](O)CC[C@@]76C)[C@H]45)[C@H](OC(C)=O)[C@H]3O)OC[C@@H](O)[C@@H]2O)cc1 (stereo partly specified)
MCF7 [1]
  IC50: > 10 µM
HCT-8
  IC50: > 10 µM
A549
  IC50: > 10 µM
KETR3
  IC50: > 10 µM
Bel-7402 [2]
  IC50: > 10 µM
A2780
  IC50: > 10 µM
BGC-823
  IC50: > 10 µM

## COc1ccc(C(=O)O[C@H]2[C@H](O[C@@H]3[C@@H](OC(C)=O)[C@H](O[C@H]4CC([C@H](C)C(=O)CC[C@@H](C)CO)[C@@]5(C)CC[C@H]6[C@@H](CC[C@H]7C[C@@H](O)CC[C@@]76C)[C@H]45)OC[C@@H]3O)OC[C@@H](O)[C@@H]2O)cc1 (stereo partly specified)
MCF7 [1]
  IC50: > 10 µM
HCT-8
  IC50: > 10 µM
A549
  IC50: > 10 µM
KETR3
  IC50: > 10 µM
Bel-7402 [2]
  IC50: > 10 µM
A2780
  IC50: > 10 µM
BGC-823
  IC50: > 10 µM

## C[C@@H](CO)CCC(=O)[C@@H](C)C1C[C@@H](O[C@H]2O[C@H](CO)[C@@H](O)[C@H](O)[C@H]2O[C@@H]2O[C@@H](C)[C@H](O)[C@@H](O)[C@H]2O)[C@H]2[C@@H]3CC[C@H]4C[C@@H](O)CC[C@]4(C)[C@H]3CC[C@]12C (stereo partly specified)
MCF7 [1]
  IC50: > 10 µM
HCT-8
  IC50: > 10 µM
A549
  IC50: > 10 µM
KETR3
  IC50: > 10 µM
Bel-7402 [2]
  IC50: > 10 µM
A2780
  IC50: > 10 µM
BGC-823
  IC50: > 10 µM

## C[C@@H](CO)CCC(=O)[C@@H](C)C1C[C@@H](O[C@@H]2O[C@H](CO)[C@@H](O)[C@H](O)[C@H]2O[C@@H]2O[C@@H](C)[C@H](O)[C@@H](O)[C@H]2O)[C@H]2[C@@H]3CC[C@H]4C[C@@H](O)CC[C@]4(C)[C@H]3CC[C@]12C (stereo partly specified)
MCF7 [1]
  IC50: > 10 µM
HCT-8
  IC50: > 10 µM
A549
  IC50: > 10 µM
KETR3
  IC50: > 10 µM
Bel-7402 [2]
  IC50: > 10 µM
A2780
  IC50: > 10 µM
BGC-823
  IC50: > 10 µM

## COc1ccc(C(=O)O[C@H]2[C@H](O[C@H]3CO[C@@H](O[C@@H]4CC([C@H](C)C(=O)CC[C@@H](C)CO)[C@@]5(C)CC[C@H]6[C@@H](CC[C@H]7C[C@@H](O)CC[C@@]76C)[C@H]45)[C@H](OC(C)=O)[C@H]3O)OC[C@@H](O)[C@@H]2O)cc1 (stereo partly specified)
MCF7 [1]
  IC50: > 10 µM
HCT-8
  IC50: > 10 µM
A549
  IC50: > 10 µM
KETR3
  IC50: > 10 µM
Bel-7402 [2]
  IC50: > 10 µM
A2780
  IC50: > 10 µM
BGC-823
  IC50: > 10 µM

## COc1ccc(C(=O)O[C@H]2[C@H](O[C@@H]3[C@@H](OC(C)=O)[C@H](O[C@@H]4CC([C@H](C)C(=O)CC[C@@H](C)CO)[C@@]5(C)CC[C@H]6[C@@H](CC[C@H]7C[C@@H](O)CC[C@@]76C)[C@H]45)OC[C@@H]3O)OC[C@@H](O)[C@@H]2O)cc1 (stereo partly specified)
MCF7 [1]
  IC50: 0.499 µM
HCT-8
  IC50: 0.1 µM
A549
  IC50: 0.843 µM
KETR3
  IC50: 0.1 µM
Bel-7402 [2]
  IC50: 0.522 µM
A2780
  IC50: 0.545 µM
BGC-823
  IC50: 0.283 µM

## COc1ccc(C(=O)O[C@H]2[C@H](O[C@@H]3[C@@H](OC(C)=O)[C@H](O[C@H]4C[C@H]5[C@@H]6CCC7C[C@@H](O)CC[C@]7(C)[C@H]6CC[C@]5(C)[C@@]4(O)[C@H](C)C(=O)CCC(C)C)OC[C@@H]3O)OC[C@@H](O)[C@@H]2O)cc1 (stereo partly specified)
Bel-7402 [3]
  IC50: 0.025 µM
AGS
  IC50: 0.71 µM
MCF7 [4]
  IC50: 0.029 µM

## C[C@@H](CO)CCC(=O)[C@@H](C)C1C[C@H](O[C@H]2O[C@H](CO)[C@@H](O)[C@H](O)[C@H]2O[C@@H]2O[C@@H](C)[C@H](O)[C@@H](O)[C@H]2O)[C@H]2[C@@H]3CC[C@H]4C[C@@H](O)CC[C@]4(C)[C@H]3CC[C@]12C (stereo partly specified)
MCF7 [1]
  IC50: > 10 µM
HCT-8
  IC50: > 10 µM
A549
  IC50: > 10 µM
KETR3
  IC50: > 10 µM
Bel-7402 [2]
  IC50: > 10 µM
A2780
  IC50: > 10 µM
BGC-823
  IC50: > 10 µM

## C[C@@H](CO)CCC(=O)[C@@H](C)C1C[C@H](O[C@@H]2O[C@H](CO)[C@@H](O)[C@H](O)[C@H]2O[C@@H]2O[C@@H](C)[C@H](O)[C@@H](O)[C@H]2O)[C@H]2[C@@H]3CC[C@H]4C[C@@H](O)CC[C@]4(C)[C@H]3CC[C@]12C (stereo partly specified)
MCF7 [1]
  IC50: > 10 µM
HCT-8
  IC50: > 10 µM
A549
  IC50: > 10 µM
KETR3
  IC50: > 10 µM
Bel-7402 [2]
  IC50: > 10 µM
A2780
  IC50: > 10 µM
BGC-823
  IC50: > 10 µM

## C[C@@H]1CC[C@@]2(OC1)O[C@H]1C[C@H]3[C@@H]4CC=C5C[C@@H](O[C@@H]6O[C@H](CO)[C@@H](O[C@@H]7O[C@@H](C)[C@H](O)[C@@H](O)[C@H]7O)[C@H](O)[C@H]6O[C@@H]6O[C@@H](C)[C@H](O)[C@@H](O)[C@H]6O)CC[C@]5(C)[C@H]4CC[C@]3(C)[C@H]1[C@@H]2C [DIOSCIN]
MCF7 [1]
  IC50: 0.879 µM
HCT-8
  IC50: 0.351 µM
A549
  IC50: 0.454 µM
KETR3
  IC50: 0.447 µM
Bel-7402 [2]
  IC50: 0.93 µM
A2780
  IC50: 0.581 µM
BGC-823
  IC50: 0.268 µM
